pIC50: −log10 of the molar value.

The values below come from ChEMBL document CHEMBL1134420, “Substituent effects within the DNA binding subunit of CBI analogues of the duocarmycins and CC-1065” (Bioorg Med Chem Lett, 2001).

The first test deals with L1210. Kind of test: Cytotoxic activity against L1210 leukemia cells. The test is classed as functional, cell-based, Mus musculus. The following applies: Mus musculus, L1210.
`CC(=O)c1ccc2[nH]c(C(=O)N3C[C@H]4C[C@@]45C3=CC(=O)c3ccccc35)cc2c1`: the negative-log IC50 (pIC50) was 11.70.
`C#Cc1ccc2[nH]c(C(=O)N3C[C@H]4C[C@@]45C3=CC(=O)c3ccccc35)cc2c1` showed a pIC50 of 9.52.
As to `CC(=O)N(C)c1ccc2[nH]c(C(=O)N3C[C@H]4C[C@@]45C3=CC(=O)c3ccccc35)cc2c1`, the negative-log IC50 (pIC50) is 10.52.
`[N-]=[N+]=Nc1ccc2[nH]c(C(=O)N3C[C@H]4C[C@@]45C3=CC(=O)c3ccccc35)cc2c1`: the negative-log IC50 (pIC50) is 9.52.
`CC(=O)c1cccc2cc(C(=O)N3C[C@H]4C[C@@]45C3=CC(=O)c3ccccc35)[nH]c12` showed a pIC50 of 9.52.
`CCCC(=O)c1ccc2[nH]c(C(=O)N3C[C@H]4C[C@@]45C3=CC(=O)c3ccccc35)cc2c1`: the pIC50 was 10.70.
Same read-out and setting: the value for `CCC(=O)c1ccc2[nH]c(C(=O)N3C[C@H]4C[C@@]45C3=CC(=O)c3ccccc35)cc2c1` was 11.52.
Compound `O=C1C=C2N(C(=O)c3cc4ccccc4[nH]3)C[C@H]3C[C@@]23c2ccccc21` had a negative logarithm of the IC50 (pIC50) of 8.57.
The compound `COc1cccc2cc(C(=O)N3C[C@H]4C[C@@]45C3=CC(=O)c3ccccc35)[nH]c12` had a pIC50 of 9.52. This pIC50 lies 0.95 log units higher than the previous one.
For `COc1ccc2[nH]c(C(=O)N3C[C@H]4C[C@@]45C3=CC(=O)c3ccccc35)cc2c1`, the pIC50 is 10.30.
The compound `N#Cc1ccc2[nH]c(C(=O)N3C[C@H]4C[C@@]45C3=CC(=O)c3ccccc35)cc2c1` showed a pIC50 of 10.52.
With `CC#Cc1ccc2[nH]c(C(=O)N3C[C@H]4C[C@@]45C3=CC(=O)c3ccccc35)cc2c1`, the pIC50 was 9.00. This pIC50 lies 1.52 log units lower than the previous one.
The same measure, in the same setting: the figure for `N#Cc1cccc2cc(C(=O)N3C[C@H]4C[C@@]45C3=CC(=O)c3ccccc35)[nH]c12` is 9.52.
In turn, `CCCCOc1ccc2[nH]c(C(=O)N3C[C@H]4C[C@@]45C3=CC(=O)c3ccccc35)cc2c1` had a pIC50 of 10.30.
Turning to `CCCOc1ccc2[nH]c(C(=O)N3C[C@H]4C[C@@]45C3=CC(=O)c3ccccc35)cc2c1`, the pIC50 is 10.40. The pIC50 values of the last two compounds are within 0.2 log units of each other.
As for `CC(=O)Nc1ccc2[nH]c(C(=O)N3C[C@H]4C[C@@]45C3=CC(=O)c3ccccc35)cc2c1`, the pIC50 was 10.52.
As to `O=C1C=C2N(C(=O)c3cc4cc(OCc5ccccc5)ccc4[nH]3)C[C@H]3C[C@@]23c2ccccc21`, the pIC50 is 10.30.
`O=C1C=C2N(C(=O)c3cc4cc(Cl)ccc4[nH]3)C[C@H]3C[C@@]23c2ccccc21` gave a pIC50 of 9.40.
Compound `O=C1C=C2N(C(=O)c3cc4cc(Br)ccc4[nH]3)C[C@H]3C[C@@]23c2ccccc21` gave a pIC50 of 9.30. This pIC50 and that of the compound before are within 0.2 log units of each other.
In the case of `CCC(=O)Nc1ccc2[nH]c(C(=O)N3C[C@H]4C[C@@]45C3=CC(=O)c3ccccc35)cc2c1`, the negative logarithm of the IC50 (pIC50) is 10.52.
`CCCC(=O)Nc1ccc2[nH]c(C(=O)N3C[C@H]4C[C@@]45C3=CC(=O)c3ccccc35)cc2c1` showed a pIC50 of 10.52.
`Cc1ccc2[nH]c(C(=O)N3C[C@H]4C[C@@]45C3=CC(=O)c3ccccc35)cc2c1` had a negative logarithm of the IC50 (pIC50) of 8.70.
Compound `CCOc1ccc2[nH]c(C(=O)N3C[C@H]4C[C@@]45C3=CC(=O)c3ccccc35)cc2c1` had a negative logarithm of the IC50 (pIC50) of 11.00. Against the preceding compound, the pIC50 is 2.30 log units higher.

Staying with this test, now noted: l1210.
`NC(=O)N1CCc2c1ccc1[nH]c(C(=O)N3CC4CC45C3=CC(=O)c3ccccc35)cc21` (stereo in doubt; (-)): the negative logarithm of the IC50 (pIC50) was at most 9.42.
The compound `O=C1C=C2N(C(=O)c3cc4cc5ccccc5cc4[nH]3)CC3CC23c2ccccc21` (stereo in doubt; 6) showed a negative-log IC50 (pIC50) of 9.30.
Compound `O=C1C=C2N(C(=O)c3cc4c(ccc5ccccc54)[nH]3)CC3CC23c2ccccc21` (stereo in doubt; 5) showed a pIC50 of 6.52.
On to `COc1cc2cc(C(=O)N3CC4CC45C3=CC(=O)c3ccccc35)[nH]c2c(OC)c1OC` (stereo in doubt), for which the pIC50 was 8.70. This pIC50 lies 2.18 log units higher than the previous one.
The same measure, in the same setting: the value for `O=C1C=C2N(C(=O)c3cc4cc5ccccc5cc4[nH]3)CC3CC23c2ccccc21` (stereo in doubt; 7) was 6.40; that for `NC(=O)N1CCc2c1ccc1[nH]c(C(=O)N3CC4CC45C3=CC(=O)c3ccccc35)cc21` (stereo in doubt; (+)) was 11.30; that for `COc1cc2cc(C(=O)N3CC4CC45C3=CC(=O)c3ccccc35)[nH]c2c(OC)c1OC` (single isomer, unassigned; (+)) was 10.52.
Take `O=C1C=C2N(C(=O)c3cc4c(ccc5ccccc54)[nH]3)CC3CC23c2ccccc21` (stereo in doubt; 4): the pIC50 is 8.30.

In general, pIC50 refers to the IC50 on a negative log10 scale, so that one unit is a factor of ten. A higher pIC50 goes with a small IC50.
